The experiment has as its system HeLa cell (Human cervix adenocarcinoma cell). As to the kind of experiment: Cell membrane penetrating performance evaluation (flow cytometry of fluorescein-labelled peptide conjugates). The class given is cell-based. As to conditions: 2 μM peptide conjugate, 37° C., 2 hours, ratio to Comparative example 2 = (Fn−F1)/(F2−F1), mode values, flow cytometer. The method, then:
Test example 1: Cell Membrane Penetrating Performance Evaluation
HeLa cell (Human cervix adenocarcinoma cell) was cultivated in a culture fluid containing 2 μM of the peptide conjugate of Examples 1 to 9 or Comparative examples 1 to 6 at 37° C. for 2 hours. Then, the cell was collected and stained with a propidium iodide solution to measure a fluorescence intensity using a flow cytometer, and a fluorescence intensity ratio to Comparative example 2 was calculated in accordance with the following formula.
Fluorescence intensity ratio=(Fn−F1)/(F2−F1)
Fn: Fluorescence intensity mode value of tested compound
F1: Fluorescence intensity mode value of tested compound of Comparative example 1
F2: Fluorescence intensity mode value of tested compound of Comparative example 2

Where no end group is shown, it is not given here. [ ]: non-standard residue; d: D form. Aib = CC(C)(N)C(=O)O; Ahx = NCCCCCC(=O)O

“F-Ahx-(cargo peptide)-(Arg)9-(Gly)3-(Leu-Leu-Aib)-NH2 (F[Ahx]CGGSGGSCRRRRRRRRRGGGLL[Aib]-NH2; not fully specified (bridges); cysteine pairing not given here) [Example 8]”: the Fluorescence intensity ratio was determined as 2.74.
Next, “F-Ahx-(cargo peptide)-(Leu-Leu-Ala)-(Gly)3-(Arg)9-NH2 (F[Ahx]CGGSGGSCLLAGGGRRRRRRRRR-NH2; not fully specified (bridges); cysteine pairing not given here) [Example 9]”: 3.34.

Source of the values: patent US20220048953A1, “CELL-PENETRATING PEPTIDE” (KANEKA CORPORATION, priority 2018, published 2022).
